Values joined by “and” are separate entries in the source; they are usually repeats but may differ in a detail not shown here. Identical values can stand only once. Inconclusive results are not listed.
Test system: nude mice, HT29 intrarenal xenograft, tumor weight T/C
Experiment: NCI In Vivo Anticancer Drug Screen. Data for tumor model HT29;CX-1 Human Adenocarcinoma (MER+) (intrarenal inoculation) in NU/NU Swiss (nude) mice
Details: endpoint: mean tumor weight change, higher = larger tumour
Summary of the method: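 T/C = treated-group value ÷ vehicle-group value, using tumor size or survival.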

[1] = dose: 400.0 mg/kg/injection, schedule: Q04DX004 (sc), vehicle: saline with Tween-80
[2] = dose: 800.0 mg/kg/injection, schedule: Q04DX004 (sc), vehicle: saline with Tween-80
[3] = dose: 1600.0 mg/kg/injection, schedule: Q04DX004 (sc), vehicle: saline with Tween-80
[4] = dose: 100.0 mg/kg/injection, schedule: Q01DX010 (sc), vehicle: saline with Tween-80
[5] = dose: 200.0 mg/kg/injection, schedule: Q01DX010 (sc), vehicle: saline with Tween-80
[6] = dose: 200.0 mg/kg/injection, schedule: Q04DX004 (sc), vehicle: saline with Tween-80

For OCC1OC(n2cnc3c(NO)ncnc32)C(O)C1O (centres undefined), the T/C (dose: 150.0 mg/kg/injection, schedule: Q04DX004 (sc), vehicle: Klucel (hydroxypropylcellulose) (HPC)) was 47 % of control, the T/C (dose: 300.0 mg/kg/injection, schedule: Q04DX004 (sc), vehicle: Klucel (hydroxypropylcellulose) (HPC)) was 46 % of control and the T/C (dose: 600.0 mg/kg/injection, schedule: Q04DX004 (sc), vehicle: Klucel (hydroxypropylcellulose) (HPC)) was 52 % of control. For the same molecule, the T/C (dose: 1200.0 mg/kg/injection, schedule: Q04DX004 (sc), vehicle: Klucel (hydroxypropylcellulose) (HPC)) was 28 % of control.
In the case of Cc1ncc([N+](=O)[O-])n1CCSC(N)=O, the T/C [1] is reported as 112 % of control, the T/C [2] is reported as 76 % of control and the T/C [3] is reported as 111 % of control.
CCOC(C)C(/C=N/NC(N)=S)=NNC(N)=S (centres undefined) was tested, and the T/C [4] was 76 % of control, the T/C [5] was 49 % of control and the T/C (dose: 400.0 mg/kg/injection, schedule: Q01DX010 (sc), vehicle: saline with Tween-80) was 68 % of control.
For BrC1c2cccc3cccc(c23)C1Br (centres undefined), the T/C (dose: 150.0 mg/kg/injection, schedule: Q04DX004 (sc), vehicle: saline with Tween-80) was 186 % of control and the T/C (dose: 1200.0 mg/kg/injection, schedule: Q04DX004 (sc), vehicle: saline with Tween-80) was 36 % of control and 39 % of control.
C[C@]12CC[C@@H]3c4ccc(OC(=O)Cc5ccc(N(CCCl)CCCl)cc5)cc4CC[C@H]3[C@@H]1CC[C@@H]2OC(=O)Cc1ccc(N(CCCl)CCCl)cc1 was tested, and the T/C [6] was 106 % of control, the T/C [1] was 70 % of control and the T/C [2] was 113 % of control. The T/C [3] was 111 % of control.
In the case of COC1=NCN=C2SC=C(N)N=C12, the T/C (dose: 37.5 mg/kg/injection, schedule: Q04DX004 (sc), vehicle: saline) is reported as 86 % of control, the T/C (dose: 75.0 mg/kg/injection, schedule: Q04DX004 (sc), vehicle: saline) is reported as 70 % of control and the T/C (dose: 150.0 mg/kg/injection, schedule: Q04DX004 (sc), vehicle: saline) is reported as 73 % of control.
In the case of CC(=O)OC1=NC(C)c2c1cc(OC(C)=O)[nH]c2=O (centres undefined), the T/C (dose: 225.0 mg/kg/injection, schedule: Q04DX004 (sc), vehicle: Klucel (hydroxypropylcellulose) (HPC)) is reported as 108 % of control and the T/C (dose: 900.0 mg/kg/injection, schedule: Q04DX004 (sc), vehicle: Klucel (hydroxypropylcellulose) (HPC)) is reported as 58 % of control.
Clc1ccc2nnnn2n1 was tested, and the T/C (dose: 100.0 mg/kg/injection, schedule: Q04DX004 (sc), vehicle: saline with Tween-80) was 114 % of control and the T/C [6] was 45 % of control.
In the case of Cc1cc(N(CC(C)Br)CC(C)Br)ccc1N=Nc1ccccc1C(=O)O (centres undefined), the T/C (dose: 3.13 mg/kg/injection, schedule: Q01DX010 (sc), vehicle: saline with Tween-80) is reported as 69 % of control, the T/C (dose: 6.25 mg/kg/injection, schedule: Q01DX010 (sc), vehicle: saline with Tween-80) is reported as 18 % of control and the T/C (dose: 12.5 mg/kg/injection, schedule: Q01DX010 (sc), vehicle: saline with Tween-80) is reported as 14 % of control.
For BrCC[Se]c1ccccc1, the T/C [6] was 16 % of control.
With CC(=O)Oc1c[nH]c(=O)[nH]c1=O the T/C (dose: 100.0 mg/kg/injection, schedule: Q04DX004 (sc), vehicle: distilled water + Tween-80) was 122 % of control, the T/C (dose: 200.0 mg/kg/injection, schedule: Q04DX004 (sc), vehicle: distilled water + Tween-80) was 117 % of control and the T/C (dose: 400.0 mg/kg/injection, schedule: Q04DX004 (sc), vehicle: distilled water + Tween-80) was 107 % of control. The T/C (dose: 800.0 mg/kg/injection, schedule: Q04DX004 (sc), vehicle: distilled water + Tween-80) was 93 % of control.
In the case of COC(=O)C(F)C(Br)C(=O)OC (centres undefined), the T/C (dose: 9.37 mg/kg/injection, schedule: Q04DX004 (sc), vehicle: saline with Tween-80) is reported as 207 % of control, the T/C (dose: 18.75 mg/kg/injection, schedule: Q04DX004 (sc), vehicle: saline with Tween-80) is reported as 68 % of control and the T/C (dose: 37.5 mg/kg/injection, schedule: Q04DX004 (sc), vehicle: saline with Tween-80) is reported as 223 % of control.
With Cc1ccc(S(=O)(=O)NC(=S)S)cc1 the T/C [4] was 110 % of control and the T/C [5] was 191 % of control.
With C/C=C1\C[C@@H]2C(OC)Nc3cc(O)c(OC)cc3C(=O)N2C1 (some centres undefined) the T/C (dose: 0.25 mg/kg/injection, schedule: Q04DX004 (sc), vehicle: saline) was 113 % of control, the T/C (dose: 0.5 mg/kg/injection, schedule: Q04DX004 (sc), vehicle: saline) was 93 % of control and the T/C (dose: 2.0 mg/kg/injection, schedule: Q04DX004 (sc), vehicle: saline) was 75 % of control.

From PubChem BioAssay AID206 (DTP/NCI, 2004)
